Test results taken from patent publication US12377077B2, “Methods and formulations to treat mitochondrial dysfunction” (The Board of Trustees of the Leland Stanford Junior …, priority 2018, dated 2025).
“Also recorded” adds a separate entry of the source.

Key:
glycogen content = experiment: Histological assessment of glycogen in skeletal muscle; format: in vivo; conditions: Sco2 KI/KO mice vs untreated; FIG. 11E
Description: (§1) Methods: To examine the effects of AMPK agonists on in vivo systems with mitochondrial dysfunction, MK8722 was used to treat a mouse model of mitochondrial disease. These mice have mitochondrial Complex IV deficiency caused by deficient cytochrome C oxidase assembly protein, SCO2, and harbor a Sco2 knock-out (KO) allele and a Sco2 knock-in (KI) allele expressing an E→K mutation at position 129 (E129K). The E129K mutation corresponds to the E140K mutation found in almost all human SCO2-mutated patients. (See e.g., Yang et al, Analysis of mouse models of cytochrome c oxidase deficiency owing to mutations in Sco2. Hum Mol Genet. 2010 Jan. 1; 19(1):170-80; the disclosure of which is incorporated by reference herein in its entirety.) The predominant phenotype of Sco2 deficient mice is reduced locomotor function and ocular defects, both common findings in patients with primary mitochondrial disease. The Sco2 mice were grouped into four treatment groups: Sco2 KI/KO+MK8722, Sco2 KI/KO+DMSO (vehicle), Control KI/WT+MK8722, Control KI/WT+DMSO with 7-9 mice per group. 1.5-month old Sco2 mice were treated once daily by oral gavage with MK8722 (10 mg/kg) or vehicle (DMSO) for 14 weeks. Locomotor function was evaluated using the activity chamber, rotarod, and hanging-wire tests and ocular structure using optical coherence tomography (OCT).

Sco2 deficient mice [1] = experiment: Ocular structure by optical coherence tomography (OCT) in Sco2 mice; format: in vivo; conditions: for thickness of the retinal nerve fiber layer (RNFL): 10 mg/kg once daily oral gavage
Description: as §1

Sco2 deficient mice [2] = experiment: Activity chamber test in Sco2 mice; format: in vivo
Description: as §1

[3] = tested on: SURF1-deficient fibroblasts; experiment: Cell viability by Calcein AM in mitochondrial stressor media; format: cell-based, human; conditions: for cellular viability, dose dependent manner: SURF1 deficient fibroblasts, FIG. 2F
Protocol: (§2) Fibroblasts previously derived from four patients with primary mitochondrial disease (Surf1, Complex I, Cox10, Polg), three patients with NGLY1 deficiency and four normal controls were used for the study. All samples were obtained with informed consent and approved by the Stanford IRB. Fibroblasts were maintained in DMEM medium containing 8.3 mM glucose and supplemented with 10% fetal bovine serum (FBS)(Fisher Scientific), 1% Penicillin-Streptomycin (10,000 U/mL)(Life Technologies), 1% glutaMAX (Life Technologies), 1% uridine (5 mg/ml) and 1% pyruvate (11 mg/ml) at 37° C., 5% CO2. For the screening of various compounds, 15×10^3 cells/500 ul media were seeded in quadruplets on 24 well microtiter plates. The following day, the medium was removed, wells washed with PBS and replaced with a mitochondrial stressor media containing DMEM, 1% Penicillin-Streptomycin (10,000 U/mL)(Life Technologies), 10% FCS (Fisher Scientific), 1 mM Galactose (Sigma Aldrich), and 25 μM sodium azide with or without the following compounds: 1 mM AICAR (Medchem Express), 1 mM Metformin (Sigma Aldrich), 100 μM PT1 (Santa Cruz Biotechnology), 100 μ[…] Express). Following treatment with the various compounds, tissue cultures were analyzed for growth, oxygen consumption rate, and ATP levels. Methods: Cell growth was measured by a fluorometric method using Calcein AM (Anaspec). Mitochondrial stressor media was removed, wells washed with PBS and then incubated with 500 ul/well of 800 nM Calcein AM in PBS for 30 min at 37 C, 5% CO2. Cell viability was measured by values obtained using a 485 nm excitation with the Flouroskan Ascent Microplate Fluorometer (Thermo Scientific).

[4] = tested on: SURF1-deficient fibroblasts; experiment: Cellular morphology by phase-contrast microscopy; format: cell-based, human; conditions: vs DMSO
Description: Fibroblasts in tissue culture were visualized by phase-contrast microscopy with a Leica DM IRB microscope at ×10 magnification, and images were taken with the Hamamatsu ORCA-ER camera.

[5] = tested on: mitochondrial cytochrome C oxidase (CytoC) and succinate dehydrogenase (SDH) activities; experiment: Histological staining of skeletal muscle for mitochondrial enzyme activities; format: in vivo; conditions: Sco2 KI/KO mice vs vehicle, FIG. 11D
Description: as §1

Sco2 deficient mice [6] = experiment: Rotarod running test in Sco2 mice; format: in vivo; conditions: KO/KI mice; vehicle 176.1 sec
Description: as §1

[7] = tested on: phosphorylated ACC (pACC); experiment: pACC western blot in skeletal muscle of Sco2 KI/KO mice; format: in vivo; conditions: KI/KO mice vs vehicle; FIGS. 11F-11G
Description: as §1

Sco2 deficient mice [8] = experiment: Hanging wire test in Sco2 mice; format: in vivo; conditions: KO/KI mice; vehicle 173.2 sec
Description: as §1

AMPK = AMPK activity used in determining EC50 (FIG. 16B); format: biochemical
[9] = tested on: phosphorylated ACC (pACC); experiment: pACC western blot in mitochondrial-defective patient cells; format: cell-based, human; conditions: mitochondrial-defective patient cells vs DMSO; FIG. 16A
[10] = tested on: POLG-deficient fibroblasts; experiment: Cell viability by Calcein AM in mitochondrial stressor media; format: cell-based, human; conditions: FIG. 2D
Protocol: as §2

[11] = tested on: COX10-deficient fibroblasts; experiment: as above; format: cell-based, human; conditions: FIG. 2B
Protocol: as §2

CI-deficient fibroblasts = experiment: as above; format: cell-based, human; conditions: FIG. 2C
Protocol: Fibroblasts previously derived from four patients with primary mitochondrial disease (Surf1, Complex I, Cox10, Polg), three patients with NGLY1 deficiency and four normal controls were used for the study. All samples were obtained with informed consent and approved by the Stanford IRB. Fibroblasts were maintained in DMEM medium containing 8.3 mM glucose and supplemented with 10% fetal bovine serum (FBS)(Fisher Scientific), 1% Penicillin-Streptomycin (10,000 U/mL)(Life Technologies), 1% glutaMAX (Life Technologies), 1% uridine (5 mg/ml) and 1% pyruvate (11 mg/ml) at 37° C., 5% CO2.
For the screening of various compounds, 15×10^3 cells/500 ul media were seeded in quadruplets on 24 well microtiter plates. The following day, the medium was removed, wells washed with PBS and replaced with a mitochondrial stressor media containing DMEM, 1% Penicillin-Streptomycin (10,000 U/mL)(Life Technologies), 10% FCS (Fisher Scientific), 1 mM Galactose (Sigma Aldrich), and 25 μM sodium azide with or without the following compounds: 1 mM AICAR (Medchem Express), 1 mM Metformin (Sigma Aldrich), 100 μM PT1 (Santa Cruz Biotechnology), 100 μM A-769662 (Medchem Express), 100 μM C24 (Medchem Express). Following treatment with the various compounds, tissue cultures were analyzed for growth, oxygen consumption rate, and ATP levels.
Methods: Cell growth was measured by a fluorometric method using Calcein AM (Anaspec). Mitochondrial stressor media was removed, wells washed with PBS and then incubated with 500 ul/well of 800 nM Calcein AM in PBS for 30 min at 37 C, 5% CO2. Cell viability was measured by values obtained using a 485 nm excitation with the Flouroskan Ascent Microplate Fluorometer (Thermo Scientific).

## O[C@@H]1CO[C@H]2[C@@H]1OC[C@H]2Oc1nc2nc(-c3ccc(-c4ccccc4)cc3)c(Cl)cc2[nH]1 [MK-8722]
Glycogen content
  glycogen content of skeletal muscle: increased glycogen content
Sco2 deficient mice [1]; KI/WT mice, vehicle 72.7 μm
  thickness of the retinal nerve fiber layer (RNFL): 74.7 μm
Sco2 deficient mice [1]; Sco2 KI/KO mice, vehicle 74.1 μm
  thickness of the retinal nerve fiber layer (RNFL): 77 μm
Sco2 deficient mice [1]; treated vs vehicle (VEH) mice, FIG. 9E
  retinal thickness, degradation: less degradation
Sco2 deficient mice [2]; KO/KI mice, 8 weeks of treatment, vehicle 1516.7 cm
  distance moved in the activity chamber: 2337.8 cm
Sco2 deficient mice [2]; knock-out/knock-in mice, FIG. 11A
  activity in activity chamber: returns to levels comparable with knock-in/wild-type mice
[3]
  cellular viability, dose dependent manner: increasing levels of cellular viability; also recorded: improved the viability
[4]
  cellular morphology: improved cellular morphology; also recorded: improved cell morphology
[5]
  intensity of histological stains indicative of CytoC and SDH activities: increased
Sco2 deficient mice [6]
  rotarod running time: 248.1 s
[7]
  ACC phosphorylation in skeletal muscle: increased phosphorylation of ACC; also recorded: increase in ACC phosphorylation
Sco2 deficient mice [8]
  hanging wire time: 312.5 s

## O=C(O)c1c[nH]c2cc(Cl)c(-c3ccc(C4(O)CCC4)s3)cc12 [EV8016, 6-chloro-5-(5-(1-hydroxycyclobutyl)thiophen-2-yl)-1H-indole-3-carboxylic acid]
AMPK
  EC50: 232 nM
[9]
  ACC phosphorylation (AMPK activation): capable of activating AMPK

## NC(=O)c1ncn([C@@H]2O[C@H](CO)[C@@H](O)[C@H]2O)c1N [AICAR]
[10]
  survival / viability: does not improve cell viability; also recorded: did not improve survival
[3]; SURF1 cells, vs untreated control treated with PBS
  mean cell survival increased: 57%
[11]
  survival / viability: does not improve cell viability; also recorded: did not improve survival
CI-deficient fibroblasts
  survival / viability: does not improve cell viability; also recorded: did not improve survival

## OCC1(c2ccc(-c3cc4nc(O[C@@H]5CO[C@H]6[C@@H]5OC[C@H]6O)[nH]c4cc3Cl)cc2)CC1 [PF-739]
[3]
  cellular viability, dose dependent manner: increasing levels of cellular viability; also recorded: improved the viability
[4]
  cellular morphology: improved cellular morphology; also recorded: improved cell morphology

## N#Cc1c(O)c2c(-c3ccc(-c4ccccc4O)cc3)csc2[nH]c1=O [Compound A-769662]
[10]
  survival / viability: improved survival
CI-deficient fibroblasts
  survival / viability: improved survival

## O=C(O)c1c[nH]c2cc(Cl)c(-c3ccc(C4(O)CCC4)cc3)cc12 [PF-06409577]
AMPK
  EC50: […]
[3]
  cellular viability, dose dependent manner: increasing levels of cellular viability
[3]; listed as PF-04609577
  cellular viability, dose dependent manner: improved the viability
[4]
  cellular morphology: improved cellular morphology
[4]; listed as PF-04609577
  cellular morphology: improved cell morphology

## Cc1ccc(OCCSc2ncccn2)c(Br)c1 [ZLN024]
CI-deficient fibroblasts
  survival / viability: improved survival
